# Assay results as given in publication PMC9782315, “Site-Specific Albumin-Selective Ligation to Human Serum Albumin under Physiological Conditions” (Bioconjugate Chemistry, 2022).
# Where two headings read alike, the source gives them in different places. Where a SMILES comes first, the peptide text is derived from it. [ ]: non-standard residue; d: D form. The star is where a group is joined. Biotin = O=C1N[C@H]2[C@H](CS[C@H]2CCCCC(=O)*)N1; Myristoyl = CCCCCCCCCCCCCC(=O)*; Aad = N[C@@H](CCCC(=O)O)C(=O)O; AEEA = NCCOCCOCC(=O)O
# What was measured:
# HSA [1] = target: T1, HSA (Homo sapiens, UniProt P02768); test: Neutravidin pull-down assay for conjugation yield of biotinylated HSA; type: biochemical
# T1 construct: purchased Sigma Aldrich
# T1 sequence (P02768 25-609): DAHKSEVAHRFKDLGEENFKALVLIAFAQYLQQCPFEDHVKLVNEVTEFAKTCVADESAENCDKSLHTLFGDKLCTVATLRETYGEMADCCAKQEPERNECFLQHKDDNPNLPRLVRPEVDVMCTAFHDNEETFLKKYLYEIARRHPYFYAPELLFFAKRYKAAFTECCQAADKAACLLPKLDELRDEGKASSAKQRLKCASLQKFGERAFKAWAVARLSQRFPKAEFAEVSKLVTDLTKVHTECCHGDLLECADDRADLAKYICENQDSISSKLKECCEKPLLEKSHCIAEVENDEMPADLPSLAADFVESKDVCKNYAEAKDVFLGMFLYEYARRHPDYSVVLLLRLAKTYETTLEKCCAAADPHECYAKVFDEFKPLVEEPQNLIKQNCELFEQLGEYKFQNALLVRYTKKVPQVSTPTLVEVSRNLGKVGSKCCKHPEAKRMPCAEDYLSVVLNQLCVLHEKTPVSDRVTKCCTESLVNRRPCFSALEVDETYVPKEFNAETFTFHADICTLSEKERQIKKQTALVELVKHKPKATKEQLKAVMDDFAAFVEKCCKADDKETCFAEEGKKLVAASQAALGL
# Experimental: Zeba spin desalting columns were pre-equilibrated by PBS buffer 3 times on
# centrifugation (1500 x g, 1 minute). After conjugation, HSA-LYL conjugates passed
# through the equilibrated Zeba desalting column. The flow through was collected and
# further condensed by a 500 μL ultracentrifugation tube (MW cutoff = 3000) at 1 5000
# rpm at 4 °C for 15 minutes. The resulting condensed solution was immediately
# reconstituted by PBS (pH = 7.2), and the condensation process was repeated 2 times to
# further remove biotinylated peptidomimetics. After that, the condensed HSA conjugate
# (typically 20-50 μL) was diluted by 100 μL PBS for Neutravidin pull-down assay.
# Using neutravidin-immobilized agarose, the NeutrAvidin pull-down assay intercepted
# biotinylated proteins through biotin-avidin interaction. Therefore, the conjugation yield
# can be determined by measuring the difference caused by NeutrAvidin pull -down.
# The yield of conjugation is calculated based on the concentration difference of HSA
# before and after passing through Neutrvidin agarose, which is calculated by following
# 𝑌𝑖𝑒𝑙𝑑 = 𝐶𝐻𝑆𝐴 𝑆𝑡𝑜𝑐𝑘−𝐶𝐻𝑆𝐴 𝐹𝑙𝑜𝑤−𝑡ℎ𝑟𝑜𝑢𝑔ℎ × 100% (1) […]
# concentration was determined by Bicinchoninic acid (BCA) assay. […]
# coulometric reactions were performed at 68°C for 30 minutes and the UV absorbance at
# 562 nm was measured by plate reader. […]
# fluorescence intensity of corresponding Western blots.
# was calculated without background subtraction .
# HSA [2] = target: T1, HSA; test: Bio-layer interferometry (BLI) assay of non-covalent biotinylated RAEs with HSA; type: binding; conditions: human serum albumin (HSA)
# Experimental: S5. BLI Assay for Biotinylated Non-covalent Peptidomimetics.
# Figure S6 Chemical Structure of Non-covalent Biotinylated RAEs (NCB-LYL1-4, NCB-LYLG) Biotinylated Non-covalent RAEs was synthesized by replacing acrylamide with acetyl group to study the intrinsic binding affinity of peptidomimetics using bio-layer interferometry (BLI) assay. For BLI assay, 1 μM non-covalent biotinylated RAEs (Figure S6) solution was prepared by kinetic buffer as the bait. As the fish, HSA solution at various concentration prepared by serial dilution using kinetic buffer, and the last well of dilution was filled with kinetic buffer as the reference well. Using 96-well plate, the biosensors were equilibrated in kinetic buffer for 60s. Then biosensors dipped ligands […]
# wells, kinetic buffer wells, HSA well, kinetic buffer wells again for 120s, 60s, 480s, 960s as loading, baseline, association, and dissociation step, respectively. The data was subtracted by reference wells and processed by ForteBio Data Analysis software to derive the Kd value using steady-state approximation by 1:1 model (Figure S7-S8)
# Figure S7 Bio-layered Interferometry for NCB-LYL1-4 and NCB -LYL -G
# (1 picture or pasted object on this page, not shown here)
# [3] = BLI, 1 μM non-covalent biotinylated RAE as bait, HSA serial dilution in kinetic buffer, association 480 s, dissociation 960 s, steady-state, 1:1 model, read-out: Kd
Compound,Kd at 480 s (HSA [2]; [3]),other results
"O=C1N[C@H]2[C@H](CS[C@H]2CCCCC(=O)Oc2ccc([N+](=O)[O-])cc2)N1 [NBE, 4-Nitrophenyl biotin ester]",–,"Conjugation Yield (HSA [1]; 10 μM HSA, 50 μM RAE or NBE, PBS pH 7.2, room temperature, 1 h, BCA read-out, 3 replications, no background subtraction): 99.0%; uptake by immobilized neutravidin agarose (conjugation yield, text) (HSA [1]; initial condition, physiological pH 7.2, 1 h): ~100%"
CCCCCCCCCCCCCC(=O)N[C@H](CCC(=O)O)C(=O)N[C@@H](CC(=O)O)C(=O)N[C@@H](CCCCNC(C)=O)C(=O)N[C@H](CO)C(=O)N[C@@H](CCCC(=O)O)C(=O)NCCOCCOCC(=O)NCCOCCOCC(=O)N[C@@H](CCCCNC(=O)CCCC[C@@H]1SC[C@@H]2NC(=O)N[C@@H]21)C(N)=O [NCB-LYL1] (Myristoyl-[dE]DK(Ac)[dS][Aad][AEEA][AEEA]K(Biotin)-NH2),1.4 µM,–
CCCCCCCCCCCCCC(=O)N[C@H](CCC(=O)O)C(=O)N[C@@H](CCCC(=O)O)C(=O)N[C@@H](CCCCNC(C)=O)C(=O)N[C@@H](CC(=O)O)C(=O)N[C@@H](Cc1ccc(O)cc1)C(=O)NCCOCCOCC(=O)NCCOCCOCC(=O)N[C@@H](CCCCNC(=O)CCCC[C@@H]1SC[C@@H]2NC(=O)N[C@@H]21)C(N)=O [NCB-LYL2] (Myristoyl-[dE][Aad]K(Ac)DY[AEEA][AEEA]K(Biotin)-NH2),1 µM,–
CCCCCCCCCCCCCC(=O)N[C@H](CCC(=O)O)C(=O)N[C@@H](CCCCNC(C)=O)C(=O)N[C@@H](CCCC(=O)O)C(=O)N[C@H](CCC(=O)O)C(=O)NCCOCCOCC(=O)NCCOCCOCC(=O)N[C@@H](CCCCNC(=O)CCCC[C@@H]1SC[C@@H]2NC(=O)N[C@@H]21)C(N)=O [NCB-LYL3] (Myristoyl-[dE]K(Ac)[Aad][dE][AEEA][AEEA]K(Biotin)-NH2),2.4 µM,–
CCCCCCCCCCCCCC(=O)N[C@H](C)C(=O)N[C@@H](CCCC(=O)O)C(=O)N[C@@H](CCCCNC(C)=O)C(=O)N[C@H](CCC(=O)O)C(=O)N[C@H](CO)C(=O)NCCOCCOCC(=O)NCCOCCOCC(=O)N[C@@H](CCCCNC(=O)CCCC[C@@H]1SC[C@@H]2NC(=O)N[C@@H]21)C(N)=O [NCB-LYL4] (Myristoyl-[dA][Aad]K(Ac)[dE][dS][AEEA][AEEA]K(Biotin)-NH2),2.8 µM,–
CCCCCCCCCCCCCC(=O)NCC(=O)NCC(=O)N[C@@H](CCCCNC(C)=O)C(=O)NCC(=O)NCC(=O)NCCOCCOCC(=O)NCCOCCOCC(=O)N[C@@H](CCCCNC(=O)CCCC[C@@H]1SC[C@@H]2NC(=O)N[C@@H]21)C(N)=O [NCB-LYLG] (Myristoyl-GGK(Ac)GG[AEEA][AEEA]K(Biotin)-NH2),–,"Kd at 480 s (HSA [2]; BLI assay, non-covalent (acetyl instead of acrylamide) biotinylated RAEs, read-out: Kd / binding affinity toward HSA): 12 µM"
